The conditions of the data set: Crystal; DTA.

Numbers after ± are expanded uncertainties.

Regarding `O=C1OCCO1` [ethylene carbonate], the Normal melting temperature is 38.00 ± 1 °C.

The values above are taken from the NIST ThermoML archive (doi:10.1016/j.tca.2016.09.007).
